According to BindingDB's records for PubMed 32898763 (n/a, 2020):

How the values were obtained:
[1] = biological target: Prostaglandin G/H synthase 1 (Homo sapiens, UniProt P23219); assay: Inhibition of COX-1 (unknown origin)
[2] = biological target: T1, Prostaglandin G/H synthase 2 (Homo sapiens, UniProt P35354); assay: Inhibition of COX-2 (unknown origin)
T1 sequence (P35354 whole entry): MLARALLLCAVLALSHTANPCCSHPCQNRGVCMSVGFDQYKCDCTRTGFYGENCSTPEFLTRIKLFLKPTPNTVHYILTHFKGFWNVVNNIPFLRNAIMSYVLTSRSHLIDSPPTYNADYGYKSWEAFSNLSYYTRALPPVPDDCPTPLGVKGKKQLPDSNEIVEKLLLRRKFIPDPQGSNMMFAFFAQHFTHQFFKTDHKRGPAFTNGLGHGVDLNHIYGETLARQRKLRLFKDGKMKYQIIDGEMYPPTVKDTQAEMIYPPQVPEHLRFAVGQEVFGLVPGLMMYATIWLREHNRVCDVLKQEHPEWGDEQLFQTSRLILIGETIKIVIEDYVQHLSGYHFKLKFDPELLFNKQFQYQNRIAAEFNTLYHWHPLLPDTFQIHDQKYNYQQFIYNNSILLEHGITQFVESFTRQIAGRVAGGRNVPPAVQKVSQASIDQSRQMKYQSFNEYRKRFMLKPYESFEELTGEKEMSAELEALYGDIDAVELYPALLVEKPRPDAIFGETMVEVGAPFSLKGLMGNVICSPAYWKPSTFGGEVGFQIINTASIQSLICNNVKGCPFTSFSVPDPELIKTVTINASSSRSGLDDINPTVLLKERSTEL

Chain of Prostaglandin G/H synthase 1 (P23219 whole entry): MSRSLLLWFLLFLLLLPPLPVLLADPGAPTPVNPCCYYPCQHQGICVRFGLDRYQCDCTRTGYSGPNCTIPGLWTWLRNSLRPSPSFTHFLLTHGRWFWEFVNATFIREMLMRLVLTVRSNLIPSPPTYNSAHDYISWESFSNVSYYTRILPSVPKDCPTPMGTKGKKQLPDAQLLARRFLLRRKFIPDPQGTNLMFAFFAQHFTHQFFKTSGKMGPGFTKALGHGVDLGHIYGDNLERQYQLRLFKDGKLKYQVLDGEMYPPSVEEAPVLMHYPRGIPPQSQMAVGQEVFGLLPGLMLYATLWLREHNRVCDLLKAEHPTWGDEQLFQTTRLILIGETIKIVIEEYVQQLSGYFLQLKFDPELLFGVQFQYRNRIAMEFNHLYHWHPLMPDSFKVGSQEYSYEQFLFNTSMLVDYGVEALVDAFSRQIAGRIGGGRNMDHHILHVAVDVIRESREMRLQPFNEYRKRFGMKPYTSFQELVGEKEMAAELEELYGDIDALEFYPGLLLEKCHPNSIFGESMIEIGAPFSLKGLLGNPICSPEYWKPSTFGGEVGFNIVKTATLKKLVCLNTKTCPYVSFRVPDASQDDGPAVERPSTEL

IC50 [1] [µM] | IC50 [2] [nM] | SMILES
9.56 | 100 | CCC(=CCN1Cc2cc(Cl)cc3nc(S)n(c23)CC1C)CC (stereo unspecified)
9.56 | 100 | CC1Cn2c(S)nc3cc(Cl)cc(c32)CN1CC1CCC1 (stereo unspecified)
9.56 | 100 | CCC(=CCN1Cc2cc(C)cc3nc(O)n(c23)C[C@@H]1C)CC
